# Source: patent publication US11166924B2, “N-methyl-d-aspartate receptor allosteric modulators and methods for their use” (Qingdao Primedicine Pharmaceutical Company, Ltd., priority 2016, dated 2021)
# How the values were obtained:
# [1] = tested on: cortical neurons; assay: H2O2-induced cytotoxicity in cortical neurons; format: cell-based; settings: in the absence of NVP-AAM007; FIG. 17
# [2] = Pharmacokinetics after i.v. injection, CSF and serum by HPLC-ECD; format: in vivo, rat
# Experimental: Npam43 was isolated from the CSF and serum matrix using high performance liquid chromatography and quantified via electrochemical detection. The system consisted of an ESA 582 pump (Bedford, Mass.), a pulse damper (Scientific Systems Inc., State College, Pa.), a Rheodyne Inert manual injector (model 9125i, 20 μL injection loop; Rohnert Park, Calif.), a Tosoh Bioscience Super ODS TSK column (2 μm particle, 2 mm×10 mm; Montgomeryville, Pa.), and an Antec Leyden Intro Electrochemical detector with VT-03 flow cell with a Ag/AgCl reference electrode (Vapplied=+800 mV; Leyden, The Netherlands). The mobile phase was a 20 mM phosphate buffer-acetonitrile (80:20, v/v) mixture, pH 7.0, flowed through the system at 0.1 mL/min. The column was maintained at 40° C. throughout the analysis and the injection volume was 8 uL. Prior to use, the mobile was filtered through a […] membrane and degassed using a vacuum pump and maintained under helium purging during experimental testing. EZChrome Elite software (Scientific Software, Pleasanton, Calif.) was used to acquire and analyze chromatographic data.
# Samples were prepared by mixing aliquots (50:50) of the specimen with acetonitrile. The samples were mixed, allowed to rest at ambient temperature for 10 min and centrifuged at 5000 g for 5 min. Eight microliters of the supernatant was injected.
# CSF and serum samples generated from the in vivo studies were thawed, and 8 μl was transferred to individual Eppendorf tubes. The internal standard (IS) of 2 μl of 0.5 μg/ml Npam50 was then added, followed by 22 μl of acetonitrile, after which samples were vortexed for 5-10 s and centrifuged for 5 min at 20,000×g to sediment precipitated protein. […]
# An in-vivo pharmacological profile of Npam43 was evaluated using Sprague Dawley mature (˜300 g) rats. Npam43 was injected intravenously (i.v) at different doses ranging from 0.5-5 mg/kg and cerebrospinal fluid (CSF) and serum samples were extracted and analyzed using a high performance liquid chromatography electrochemical detection assay (HPLC-ECD). […]
# [3] = tested on: pCREB; assay: pCREB levels in hippocampal and cortical tissue after i.v. injection; format: in vivo, rat; settings: 1 mg/kg i.v., 1 h post-treatment
# Experimental: Brain tissues or cultured cells were lysed on ice in the lysis buffer and then the solution was centrifuged at 14,000 rpm for 10 min at 4° C. Next, the supernatant was collected and protein concentrations were determined using a BCA protein assay kit (Thermo Scientific, 23227). Equal amount of protein samples were mixed with 4 times sample buffer, boiled at 100° C. for 5 min, and separated on 10% sodium dodecyl sulphate-polyacrylamide gel electrophoresis (SDS-PAGE). Proteins were then transferred to Immobilon-PTM polyvynilidene fluoride (PVDF) membranes (Bio-Rad, 162-0177). The membranes were blocked with 5% non-fat milk in Tris-buffered saline containing 0.1% Tween-20 (TBST) for 1 hour at room temperature, and then incubated overnight at 4° C. with primary antibody. After washing 3×5 min in TBST, protein was visualized in the Bio-Rad Imager using ECL Western blotting substrate (Pierce, 32016). For the detection of phospho-CREB, samples prepared in the same day were used. The polyvinylidene difluoride membrane (Millipore, Bedford, Mass., USA) was incubated with primary antibody against phospho-CREB (Ser133) (Cell Signaling Technology, Beverly, Mass.). […] The band density of each protein was quantified by the Bio-Rad Quantity One software and the relative optical density was analyzed relative to loading total-CREB on the same membrane. […]
# [4] = target: T1, GluN2A component of NMDAR currents in hippocampal slices (Mus musculus, UniProt P35436+P35438); assay: Slice recordings, GluN2A component of synaptic NMDAR currents; settings: FIG. 18
# T1 construct: from tissue; host or cells: mouse hippocampal slices, CA1 pyramidal neurons
# Excerpt: 6-8 week old C57/Bl6 mice or rats underwent cervical dislocation followed by decapitation. The brain was immediately transferred to an ice cold NMDG-based cutting solution consisting of: (in mM): 120 NMDG, 2.5 KCl, 1.2 NaH2PO4, 25 NaHCO3, 1.0 CaCl2, 7.0 MgCl2, 2.4 Na-pyruvate, 1.3 Na-ascorbate, 20 D-glucose with pH adjusted to 7.35 using HCl acid (unless stated, all chemicals and drugs were purchased from Sigma or BioShop, Canada). The hippocampus was dissected out and transverse hippocampal slices (400 μm) were obtained using a manual tissue chopper (Stoelting, Wood Dale, Ill., USA). Slices recovered in a heated (30° C.) incubating chamber for 1 hr which contained ACSF composed of (in mM): 124 NaCl, 3 KCl, 1.25 NaH2PO4, 1 MgSO47H2O, 2 CaCl2), 26 NaHCO3 and 15 D-glucose which was bubbled continuously with carbogen (95% O2/5% CO2) (pH to 7.3). After 30 additional minutes at room temperature, slices were transferred to a submerged recording chamber and were perfused continuously with carbogenated ACSF (2-3 ml/min). Whole-cell recordings of CA1 pyramidal neurons were performed using the “blind” method with a MultiClamp 700B amplifier. EPSCs (excitatory post synaptic currents) were elicited by stimulating the SC pathway. For isolation of NMDAR currents, cells were voltage clamped at +40 mV. […]
# T1 sequence (P35436 23-1464, other chains not shown): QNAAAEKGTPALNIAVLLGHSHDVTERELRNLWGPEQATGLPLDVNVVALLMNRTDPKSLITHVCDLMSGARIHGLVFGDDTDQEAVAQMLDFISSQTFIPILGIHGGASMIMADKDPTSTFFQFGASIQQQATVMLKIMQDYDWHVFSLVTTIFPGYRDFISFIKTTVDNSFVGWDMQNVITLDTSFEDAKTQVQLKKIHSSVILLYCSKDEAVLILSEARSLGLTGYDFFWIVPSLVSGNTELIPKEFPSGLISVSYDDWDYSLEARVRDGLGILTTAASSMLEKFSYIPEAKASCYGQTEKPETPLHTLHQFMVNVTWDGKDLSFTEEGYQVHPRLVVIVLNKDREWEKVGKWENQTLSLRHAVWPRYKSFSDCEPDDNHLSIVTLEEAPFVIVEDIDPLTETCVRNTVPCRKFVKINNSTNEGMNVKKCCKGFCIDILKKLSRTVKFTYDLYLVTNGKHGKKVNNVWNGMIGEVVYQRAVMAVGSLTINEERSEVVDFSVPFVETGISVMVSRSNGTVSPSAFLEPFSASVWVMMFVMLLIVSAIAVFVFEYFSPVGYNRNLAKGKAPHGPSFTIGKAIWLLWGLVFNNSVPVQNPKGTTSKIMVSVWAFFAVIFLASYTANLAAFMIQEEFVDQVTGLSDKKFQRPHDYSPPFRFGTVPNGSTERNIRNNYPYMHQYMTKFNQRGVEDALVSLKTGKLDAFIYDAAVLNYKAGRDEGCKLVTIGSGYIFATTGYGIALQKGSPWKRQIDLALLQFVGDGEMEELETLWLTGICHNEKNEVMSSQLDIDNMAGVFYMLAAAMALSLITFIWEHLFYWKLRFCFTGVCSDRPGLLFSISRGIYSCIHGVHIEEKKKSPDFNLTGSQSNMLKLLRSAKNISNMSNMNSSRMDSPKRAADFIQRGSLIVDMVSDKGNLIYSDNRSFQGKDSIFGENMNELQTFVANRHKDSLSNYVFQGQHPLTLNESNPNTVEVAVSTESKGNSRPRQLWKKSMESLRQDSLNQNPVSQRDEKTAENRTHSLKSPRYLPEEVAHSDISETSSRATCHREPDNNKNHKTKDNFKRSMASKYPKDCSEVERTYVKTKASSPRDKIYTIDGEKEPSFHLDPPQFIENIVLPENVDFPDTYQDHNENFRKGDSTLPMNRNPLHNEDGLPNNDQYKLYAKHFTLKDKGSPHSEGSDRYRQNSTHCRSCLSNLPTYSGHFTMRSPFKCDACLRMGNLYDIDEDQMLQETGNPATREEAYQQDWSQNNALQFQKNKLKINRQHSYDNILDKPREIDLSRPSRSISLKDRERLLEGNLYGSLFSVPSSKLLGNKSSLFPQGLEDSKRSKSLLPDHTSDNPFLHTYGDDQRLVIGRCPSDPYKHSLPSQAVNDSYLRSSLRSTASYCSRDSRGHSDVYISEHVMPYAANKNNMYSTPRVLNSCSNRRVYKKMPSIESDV
structure (smiles),measurement,setting,value
"CCOc1cc(Cl)c(Cl)c(/C=N/NC(=O)c2ccccc2Br)c1O [Npam43, (E)-2-bromo-N′-(2,3-dichloro-5-ethoxy-6-hydroxybenzylidene)benzohydrazide]",H2O2-induced non-NMDAR dependent cytotoxicity,[1],reduced
same,half-life,"[2]; Sprague-Dawley, rat, CSF, iv, rats, estimated",2.95 ± 0.6 h
same,Blood-brain-barrier penetration,"[2]; i.v. 0.5-5 mg/kg, Sprague Dawley rats",effective at penetrating the blood-brain-barrier (BBB)
same,Metabolic stability in the CSF and serum,"[2]; i.v., rats, FIG. 22",moderate metabolic stability
same,pCREB levels in hippocampal and cortical tissue,[3],elevated
same,Effect on GluN2A component of NMDAR currents,[4],selectively potentiated the GluN2A component of NMDAR currents
